Literature values in patent US8905760B2, “Methods and systems for progressively treating and controlling oral periopathogens causing systemic inflammations” (priority 2008, dated 2014).
Counter-ions that a name gives are not always drawn.

Details: IPT group: standard periodontal therapy with adjunctive local delivery of minocycline-HCl (Arestin); N=20; P<0.0001, t test

In the case of `CN(C)c1ccc(O)c2c1C[C@H]1C[C@H]3[C@H](N(C)C)C(O)=C(C(N)=O)C(=O)[C@@]3(O)C(O)=C1C2=O` [minocycline-HCl], the “reduction of periodontal lesions after therapy (mean difference)” value is given as 60±23.
